One may read the TGI as the concentration at which net growth stops. The low end stands for greater sensitivity of the cells, the high end for lower sensitivity of the cells.

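Where inhibition never reached the appropriate level, the endpoint shown equals the highest concentration tested. Otherwise, values were interpolated linearly from a five-concentration, 48-hour dose response in 96-well plates. At the TGI there is no net growth.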

What all share (assay): DTP human tumour cell line panel, 48 h
Assay [1] relates to COLO 205 colon.
Assay [2] has as its system HL-60(TB) leukemia.
Assay [3] deals with HOP-62 NSCLC.
In assay [4] the test system is HOP-92 NSCLC.
Assay [5] concerns IGROV1 ovarian.
Assay [6] deals with M14 melanoma.
For assay [7], the system named is NCI-H226 lung.
The test system of assay [8] is OVCAR-3 ovarian.
Assay [9] concerns SF-539 CNS.
Assay [10] deals with SK-MEL-28 melanoma.
The test system of assay [11] is SK-MEL-5 melanoma.
For assay [12], the system named is SNB-75 CNS.
The subject of assay [13] is TK-10 renal.
In assay [14] the test system is UACC-62 melanoma.
Assay [15] has as its system UO-31 renal.
Assay [16] has as its system RXF 393 renal.
Assay [17] deals with NCI/ADR-RES ovarian.

In the case of `N#C/C(c1nc2ccccc2[nH]1)=c1\s/c(=C/c2ccccc2)c(=O)n1-c1ccccc1`, the TGI in [1], in [2], in assay [3], in [4], in assay [5] and in assay [6] was above 100 µM in each case. Besides, the total growth inhibition concentration (TGI) in assay [7], in [8], in [9], in [10], in assay [11] and in [12] was above 100 µM throughout. Besides, the total growth inhibition concentration (TGI) in assay [13], in assay [14] and in assay [15] was above 100 µM throughout.

As for `O=C1C(Cl)C(c2ccccc2Cl)N1n1cnc2ccccc2c1=O` (configuration not stated), the TGI was above 100 µM in [1]; 57.4 µM in [2]; above 100 µM in assay [3]; above 100 µM in assay [5]; above 100 µM in assay [6]; 91.4 µM in [7]. Further, the TGI is above 100 µM in assay [8]; 67.3 µM in assay [16]; above 100 µM in assay [10]; above 100 µM in assay [11]; 59.4 µM in assay [12]; above 100 µM in [13]. In addition, the total growth inhibition concentration (TGI) was above 100 µM in assay [14] and 73.2 µM in assay [15].

As for `NC(=O)N/N=C(\CC1OC(=O)c2ccccc21)c1ccc([N+](=O)[O-])cc1` (configuration not stated), the TGI in [1] was above 100 µM; in assay [2] it was above 100 µM; in [3], 53.6 µM; in assay [5], 49.8 µM; in assay [6], above 100 µM; in assay [8] it was above 100 µM. The TGI in assay [16] is 28.9 µM; in assay [9] it was 55 µM; in assay [11] it was 47.2 µM; in assay [12], 78.6 µM; in assay [13] it was above 100 µM; in [14] it was 34.8 µM. This compound also registered a total growth inhibition concentration (TGI) in assay [15] above 100 µM.

Regarding `CC(=O)NC(CCCNC(=O)N(C)N=O)C(=O)NCc1ccccc1` (configuration not stated), the total growth inhibition concentration (TGI) in [1], in assay [3], in assay [4], in assay [5], in assay [6] and in [7] was above 100 µM each time. Besides, the TGI in assay [8], in [16], in [9], in assay [10], in [11] and in assay [12] was above 100 µM in each case. In addition, the TGI in [13], in assay [14] and in [15] was above 100 µM each time.

With `Cc1ccc(C(=O)NC2CCCCC2)cc1N=NN(C)C`, the TGI in [3], in assay [4], in [5], in assay [6], in assay [8] and in assay [9] was above 100 µM throughout. The TGI in assay [10], in [11], in assay [13], in assay [14] and in [15] was above 100 µM throughout.

With `CCc1cccc(C(C)C)c1NC(=O)/C(=N\NC(N)=O)C(C(=O)OC)c1cnc2ccccc2n1` (configuration not stated), the TGI in [1] is 49.6 µM; in assay [2], 79.6 µM; in assay [3] it was above 100 µM; in [5], above 100 µM; in [6] it was above 100 µM; in assay [7], above 100 µM. In addition, the TGI is 60.3 µM in assay [8]; above 100 µM in assay [16]; above 100 µM in assay [9]; above 100 µM in assay [10]; 35.1 µM in assay [11]; above 100 µM in assay [12]. Also, the TGI in assay [13] was above 100 µM; in assay [14] it was 62.7 µM; in [15], above 100 µM.

As to `CC1(O)CC2C(CC1SC1CC3C(CC1(C)O)C3(C)C)C2(C)C` (configuration not stated), the TGI is above 100 µM in assay [1]; 58.5 µM in assay [2]; above 100 µM in assay [4]; above 100 µM in assay [5]; above 100 µM in assay [6]; above 100 µM in assay [7]. The TGI in assay [8] was above 100 µM; in assay [9] it was above 100 µM; in assay [10], above 100 µM; in assay [11] it was 59.7 µM; in [12], 80.1 µM; in assay [13], above 100 µM. In assay [15], this compound returned a TGI above 100 µM.

For the compound `CCOC(=O)C(C)NC(=O)NC12CC3CC(CC(F)(C3)C1)C2` (configuration not stated), the concentration for total growth inhibition (TGI) in assay [1] was above 100 µM; in assay [2], above 100 µM; in [3], above 100 µM; in assay [4], 56.2 µM; in [5], above 100 µM; in assay [6], above 100 µM. For the same compound, the total growth inhibition concentration (TGI) was above 100 µM in assay [8]; 86.6 µM in assay [16]; above 100 µM in [9]; above 100 µM in assay [10]; above 100 µM in assay [11]; above 100 µM in assay [12]. Besides, the TGI in [13], in assay [14] and in [15] was above 100 µM in each case.

Consider `O=C(O)CCC(NC(=O)c1ccc(Oc2nc3ccccc3nc2C(=O)O)cc1)C(=O)O` (configuration not stated), for which the concentration for total growth inhibition (TGI) in assay [1], in [2], in [3], in [4], in [5] and in assay [6] was above 100 µM each time. Also, the total growth inhibition concentration (TGI) in [7], in assay [17], in assay [8], in assay [16], in assay [10] and in assay [11] was above 100 µM in each case. For the same compound, the TGI in [12], in assay [13], in [14] and in assay [15] was above 100 µM throughout.

The values are drawn from PubChem BioAssay (NCI).
